{"source": "patent US20180065940A1", "about": "“METAL-BINDING COMPOUNDS, HETEROLOGOUS PRODUCTION AND USES THEREOF” (The Research Foundation for The State University of New York, priority 2015, published 2018)", "key": {"[1]": {"assay": "Gold-binding assay (LC-MS)", "details": "1 mM Au(III), crude extract 2-5 μM, 2 hours at 22° C.", "protocol": "Gold-binding Assay To test Ybt or analog gold binding capability, HAuCl4 was used to generate a solution of 1 mM Au(III) in de-ionized water. To this solution, crude extract of Ybt or analog (from samples prepared without FeCl3 addition) was added at a final concentration of 2-5 μM. After incubation for 2 hours at 22° C., the solution was analyzed by LC-MS."}, "[2]": {"assay": "Rust removal experiments (1,10-phenanthroline assay)", "protocol": "Rust Removal Experiments. A rusted carbon steel tube was machine cut into U-shaped pieces (through the University at Buffalo School of Engineering and Applied Sciences Engineering Machine Shop) and each piece, after cleaning with acetone and rinsing with DI water, immersed in 10 mL Millipore water. Samples were then mixed with 250 μL of methanol or final extracts (about 0.2 mg of Ybt) derived from the larger-scale negative control or Ybt production cultures. Samples were then allowed to incubate at 30° C. with shaking for 2 hours.\nRust removal was quantified through a modification of the 1,10-phenanthroline assay to enable detection using a 96-well plate format. To each well, 40 μL of 0.3% (wt/vol) 1,10-phenanthroline, 40 μL of 1% (wt/vol) hydroxylamine hydrochloride, and 40 μL of 0.1 M ammonium acetate were mixed. […] Absorbance was measured using a microplate reader at a wavelength of 510 nm with concentration measurements determined from a calibration curve of Fe^3+ (Sigma-Aldrich).\nTo assess total rust removal, metal samples recovered after incubation were washed with water and immersed in a solution of 1% (wt/vol) oxalic acid for 30 minute to remove the remaining rust on the metal surface. Upon quantifying the amount of Fe^3+ removed using the 96-well plate method introduced above, percent rust removal was calculated using the following equation: […]"}, "[3]": {"assay": "Copper removal experiments with Ybt-modified XAD beads (Zincon assay)", "details": "fresh beads in three successive applications", "protocol": "(§1) Copper Removal Experiments. Copper and zinc removal assessment was completed using the Zincon assay (Sabel et al. 2010. Anal Biochem 397:218-226). Briefly, 40 μL samples (diluted if necessary to keep concentrations less than 4 ppm) were added to 200 μL of borate buffer (65.8 mM; pH=9), and the assay was initiated by adding 10 μL of Zincon solution (1.6 mM). After a five-minute incubation at 20° C., absorbance at 610 nm was measured. Standard curves for Zn and Cu were made using pure salts (Sigma-Aldrich) to allow quantification. The initial measurement provides total metal concentration (zinc and copper together) while the second measurement allows determination of the copper concentration. By subtracting the second reading from the first, zinc concentration is determined. […]\n(§2) To test copper removal, 800 μL of copper solution was added to 40 mg of Ybt-modified XAD beads (or controls) and incubated at 30° C. with shaking (for sheep blood and 50% FBS RPMI samples, this temperature was 22° C.). […] The copper content of the original mixture solution and the liquid resulting from the bead washing steps was measured using the Zincon assay described above. […] The removal ability was calculated using the following equation: […]"}, "[4]": {"assay": "Zinc removal with Ybt-modified XAD beads (Zincon assay)", "details": "FIG. 14D", "protocol": "as §1, §2"}, "[5]": {"assay": "Packed-bed removal from zinc and copper solutions", "details": "pH 6.5", "protocol": "Copper removal experiments: To test copper removal, 10 grams of each resin (XAD, Chelex 100, and Ybt-XAD) were packed into a 2.5×10 cm glass chromatography column (Bio-Rad). The column was equilibrated with 10 bed volumes of Millipore water before loading the metal solution. The metal solution (˜5 ppm zinc and ˜1 ppm copper; pH adjusted with dilute HCl or NaOH) was pumped (LMI Milton Roy dosing pump) into the column with a continuous flow rate of 1 L/hr. Samples were collected every 30 min. The percent copper or zinc removal was calculated using the following formula: [(Ci−Cf)/Ci]×100, where Ci is the initial copper (or zinc) concentration and Cf is the final concentration. Average selectivity was defined as the ratio of average copper removal (%) to the average zinc removal (%) over the course of the experiment."}, "[6]": {"details": "pH 2 (10 mM HCl)", "protocol": "Based upon the pH removal profiles for Ybt-XAD, the column was tested for regeneration (FIG. 27). […] To select the degree of pH reduction, the Ybt compound was tested for degradation over log-fold differences in HCl concentrations (FIG. 31)."}, "RAW264.7 cells": {"tested_on": "RAW264.7 cells", "protocol": "Biological Interaction Assays. Cytotoxicity resulting from Ybt samples was determined by the 3-(4, 5-dimethylthiazol-2-yl)-diphenyltetrazolium bromide (MTT) colorimetric assay. Three distinct cell lines (RAW264.7 [macrophage; provided by Dr. Terry Connell, Department of Microbiology and Immunology, University at Buffalo], HeLa [epithelial; provided by Dr. Stelios Andreadis, Department of Chemical and Biological Engineering, University of Buffalo], and NIH3T3 [fibroblast; ATCC]) were cultured in T75 flasks at 37° C./5% CO2. RAW264.7 cells were maintained in medium prepared as follows: 50 mL of FBS (heat inactivated), 5 mL of 100 mM MEM sodium pyruvate, 5 mL of 1 M HEPES buffer, 5 mL of penicillin/streptomycin solution, and 1.25 g of D-(+)-glucose added to 500 mL RPMI-1640 and filter sterilized. HeLa and NIH3T3 cells were maintained in Dulbecco's Modified Eagle Medium (DMEM; Gibco BRL, Grand Island, N.Y.) supplemented with 10% (v/v) FBS (GIBCO) and 1% (v/v) Antibiotic-Antimycotic (A/A; Gibco). […]"}, "[7]": {"tested_on": "red blood cell (RBC) membranes", "details": "0.03 mg/mL Ybt or 50 mg/mL Ybt-XAD beads in PBS, 37° C."}}}
{"smiles": "CC(C)(C1=N[C@@](C)(C(=O)O)CS1)[C@H](O)[C@@H]1CSC([C@H]2CSC(c3ccccc3O)=N2)N1", "note": "(stereo partly drawn) [Ybt, yersiniabactin]", "values": [{"measurement": "gold binding / complex formation", "setting": "[1]", "result": "lack of complexation"}, {"measurement": "rust removed, of total rust", "setting": "[2]; about 0.2 mg of Ybt, 30° C., 2 hours", "result": "about 20%"}, {"measurement": "rust removed relative to the commercial control", "setting": "[2]; relative to commercial product Rust-Oleum", "result": "about 40%"}, {"measurement": "copper removal after repeated extractions", "setting": "[3]", "result": "~100", "unit": "%"}, {"measurement": "zinc removal capability", "setting": "[4]", "result": "no discernible capability to remove zinc"}, {"measurement": "zinc binding in fixed bed", "setting": "[5]", "result": "not observed"}, {"measurement": "stability (degradation over time)", "setting": "[6]", "result": "stability"}, {"measurement": "immunogenicity via NO production from macrophage cells", "setting": "RAW264.7 cells", "result": "minimal concerns"}, {"measurement": "RBC hemolysis", "setting": "[7]", "result": "minimal concerns"}]}
